Where a name gives a salt, the structure may show the parent alone.
Each compound was assayed against catalytic domain of human PARP14 (Homo sapiens (Human), UniProt Q460N5) (assay: Enzymatic assay for inhibition of PARP14 (DELFIA, auto-modification with biotin-NAD)). Conditions: auto-modification of PARP14 by biotin-NAD, 50 nM PARP14, 3 μM biotin-NAD.
Assay type: biochemical
Experimental: An N-terminal His-TEV fusion tag was used to purify the protein from cell lysates. The His-TEV tag was left on the protein for use in the enzymatic assay.
Enzymatic inhibition of PARP14 was measured using a dissociation-enhanced lanthanide fluorescence immunoassay (DELFIA) monitoring the auto-modification of PARP14 by biotinylated nicotinamide adenine dinucleotide (biotin-NAD). 1 μL of a dose response curve of each test compound was spotted in 384-well nickel-coated white microplates (Thermo) using a Mosquito (TTP Labtech). Reactions were performed in a 50 μL volume by adding 40 μL of PARP14 in assay buffer (20 mM HEPES pH==8, 100 mM NaCl, 0.1% bovine serum albumin, 2 mM DTT and 0.002%0 Tween20), incubating with test compound at 25° C. for 30 min, then adding 10 μL of biotin-NAD (Biolog). The final concentrations of PARP14 and biotin-NAD are 50 nM and 3 μM, respectively. Reactions proceeded at 25° C. for 3 h, then were quenched with 5 μL of 10 mM unmodified nicotinamide adenine dinucleotide (Sigma-Aldrich). The quenched reactions were washed 3 times with 100 μL of TBST wash buffer (50 mM Tris-HCl, 150 mM NaCl and 0.1% Tween20). Next, to the washed and dried plate was added 25 μL of DELFIA Europium-N1 streptavidin (Perkin Elmer) diluted in DELFIA assay buffer (Perkin Elmer). After a 30 min incubation at 25° C., the plate was washed 5 times with TBST wash buffer. Finally, 25 μL of DELFIA enhancement solution was added. After a 5 min incubation the plate was read on an Envision platereader equipped with a LANCE/DELFIA top mirror (Perkin Elmer) using excitation of 340 nm and emission of 615 nm to measure the amount of Europium present in each well, informing on the amount of biotin-NAD that was transferred in the automodification reaction.
[formula] where ex615cmpd is the emission from the compound treated well, ex615min is the emission from the rucaparib treated positive control well and ex615max is the emission from the DMSO treated negative control well.
The % inhibition values were plotted as a function of compound concentration and the following 4-parameter fit was applied to derive the IC50 values:
[formula] where top and bottom are normally allowed to float, but may be fixed at 100 or 0 respectively in a 3-parameter fit. The Hill Coefficient is normally allowed to float but may also be fixed at 1 in a 3-parameter fit. Y is the % inhibition and X is the compound concentration.

Sequence of catalytic domain of human PARP14 (Q460N5 1611-1801): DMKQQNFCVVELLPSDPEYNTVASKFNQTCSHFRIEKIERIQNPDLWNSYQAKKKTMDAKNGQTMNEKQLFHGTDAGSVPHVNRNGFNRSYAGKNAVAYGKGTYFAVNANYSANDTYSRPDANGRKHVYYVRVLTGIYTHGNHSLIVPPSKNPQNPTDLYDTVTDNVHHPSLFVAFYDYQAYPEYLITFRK

| SMILES | IC50 [nM] |
| --- | --- |
| O=c1[nH]c(CSC2CCOCC2)nc2cc(Nc3cccnc3)ccc12 [Example 80, 7-(Pyridin-3-ylamino)-2-(((tetrahydro-2H-pyran-4-yl)thio)methyl)quinazolin-4(3H)-one] | < 1000 |
| O=c1[nH]c(CSC2CCOCC2)nc2cc(OCc3ccccc3)ccc12 [Example 96, 7-(Benzyloxy)-2-(((tetrahydro-2H-pyran-4-yl)thio)methyl)quinazolin-4(3H)-one] | 1000 to 10000 |
| O=c1[nH]c(CSC2CCOCC2)nc2cc(N[C@H]3CC[C@@H](N4CCOCC4)CC3)cc(F)c12 [Example 234, 5-Fluoro-7-((cis-4-morpholinocyclohexyl)amino)-2-(((tetrahydro-2H-pyran-4-yl)thio)methyl)quinazolin-4(3H)-one Trifluoroacetate] | 1000 to 10000 |
| O=c1[nH]c(CSC2CCOCC2)nc2cc(NC3CCOC3)ccc12 (stereo not shown) [Example 121, 2-(((Tetrahydro-2H-pyran-4-yl)thio)methyl)-7-((tetrahydrofuran-3-yl)amino)quinazolin-4(3H)-one] | < 1000 |
| Cc1cccc2c(=O)[nH]c(CS[C@@H]3CCC[C@H](CO)O3)nc12 (relative stereo) [Example 260, 2-(((Cis-6-(hydroxymethyl)tetrahydro-2H-pyran-2-yl)thio)methyl)-8-methylquinazolin-4(3H)-one] | > 10000 |
| Cc1cccc2c(=O)[nH]c(CSC3CCN(CCCN)CC3)nc12 [Example 165, 2-(((1-(3-Aminopropyl)piperidin-4-yl)thio)methyl)-8-methylquinazolin-4(3H)-one dihydrochloride] | < 1000 |
| Cc1cccc2c(=O)[nH]c(CSC3CCN(CCc4ccccc4)CC3)nc12 [Example 147, 8-Methyl-2-(((1-phenethylpiperidin-4-yl)thio)methyl)quinazolin-4(3H)-one trifluoroacetate] | < 1000 |
| Cc1cc(Cl)cc2c(=O)[nH]c(CSC3CCOCC3)nc12 [Example 44, 6-Chloro-8-methyl-2-(((tetrahydro-2H-pyran-4-yl)thio)methyl)quinazolin-4(3H)-one] | < 1000 |
| Cc1cccc2c(=O)[nH]c(CSC3CCC(CN)C3)nc12 (stereo not shown) [Example 191, 2-(((3-(aminomethyl)cyclopentyl)thio)methyl)-8-methylquinazolin-4(3H)-one] | 1000 to 10000 |
| Cc1cccc2c(=O)[nH]c(CSC3CCN(CCNC(=O)c4ccccn4)CC3)nc12 [Example 164, N-(2-(4-(((8-Methyl-4-oxo-3,4-dihydroquinazolin-2-yl)methyl)thio)piperidin-1-yl)ethyl)picolinamide] | 1000 to 10000 |

Further lines, results first:

| IC50 [nM] | SMILES |
| --- | --- |
| < 1000 | CN1CC[C@@H](COc2cc(F)c3c(=O)[nH]c(CSC4CCOCC4)nc3c2)[C@H](F)C1 [Example 327a, 5-Fluoro-7-(((3S,4S)-3-fluoro-1-methylpiperidin-4-yl)methoxy)-2-(((tetrahydro-2H-pyran-4-yl)thio)methyl)quinazolin-4(3H)-one] |
| < 1000 | CC1(C)CC(SCc2nc3cc(OCC4CCC4)cc(F)c3c(=O)[nH]2)CCO1 (stereo not shown) [Example 308, 7-(Cyclobutylmethoxy)-2-(((2,2-dimethyltetrahydro-2H-pyran-4-yl)thio)methyl)-5-fluoroquinazolin-4(3H)-one] |
| < 1000 | O=c1[nH]c(CSC2CCNCC2)nc2cc(OCC3CC3)cc(F)c12 [Example 278, 7-(Cyclopropylmethoxy)-5-fluoro-2-((piperidin-4-ylthio)methyl)quinazolin-4(3H)-one] |
| < 1000 | O=c1[nH]c(CSC2CCOCC2)nc2cc(OCC3CC3(F)F)cc(F)c12 (stereo not shown) [Example 315, 7-((2,2-Difluorocyclopropyl)methoxy)-5-fluoro-2-(((tetrahydro-2H-pyran-4-yl)thio)methyl)quinazolin-4(3H)-one] |
| < 1000 | CC(=O)N1CC[C@@H](Nc2cc3nc(CS[C@H]4CC[C@H](O)CC4)[nH]c(=O)c3c(F)c2F)C1 [Example 349] |
| 1000 to 10000 | CN1CC[C@H](CNc2cc3nc(CSC4CCOCC4)[nH]c(=O)c3c(F)c2F)[C@H](F)C1 (relative stereo) [Example 408] |
